In brackets after ≈: the same amount, converted by molar mass.
What was measured:
[1] = Cmax in rat brain at 1 mg/kg, po; format: ADME, organism-based; set-up: dose 1 mg/kg, route po
[2] = Unbound fraction in rat brain at 1 mg/kg, po by rapid equilibrium dialysis method; format: ADME, organism-based
[3] = Unbound Cmax in rat brain at 1 mg/kg, po by rapid equilibrium dialysis method; format: ADME, organism-based; settings: in vivo
[4] = AUC (0 to 6 hrs) in rat brain at 1 mg/kg, po; format: ADME, organism-based; set-up: time < 6 hr, dose 1 mg/kg, route po; settings: in vivo
[5] = AUC (0 to 6 hrs) in rat plasma at 1 mg/kg, po; format: ADME, organism-based; set-up: time < 6 hr, dose 1 mg/kg, route po
[6] = Unbound brain-to-plasma concentration ratio in rat at 1 mg/kg, po; format: ADME, organism-based; settings: read-out: K(p,uu,brain)
[7] = Unbound fraction in rat plasma at 1 mg/kg, po by rapid equilibrium dialysis method; format: ADME, organism-based
[8] = Tmax in rat plasma at 1 mg/kg, po; format: ADME, organism-based
[9] = Tmax in rat brain at 1 mg/kg, po; format: ADME, organism-based
[10] = Cmax in rat plasma at 1 mg/kg, po; format: ADME, organism-based; set-up: dose 1 mg/kg, route po
[11] = Unbound Cmax in rat plasma at 1 mg/kg, po by rapid equilibrium dialysis method; format: ADME, organism-based; settings: in vivo
Homo sapiens = species on record: Homo sapiens; assay: Selectivity ratio of Kb for antagonist activity at human alpha2A receptor stably expressed in CHO cells to Kb for antagonist activity at human alpha2C receptor stably expressed in CHO cells; format: cell-based
[12] = Permeability across basolateral to apical side in human Caco-2 cells; format: ADME, cell-based; settings: read-out: permeability
[13] = Lipophilicity, log D of compound at pH 7.4; format: physicochemical; settings: buffer
in vitro = settings: human, Caco-2
Description: Efflux ratio of permeability across basolateral to apical side over apical to basolateral side in human Caco-2 cells

[14] = Clearance in human hepatocytes assessed per million cells at 1 uM; format: ADME, cell-based, Hepatocyte; settings: read-out: CLH
[15] = Solubility of compound in pH 7.4 buffer at 1 uM; format: physicochemical
[16] = Permeability across apical to basolateral side in human Caco-2 cells; format: ADME, cell-based; settings: read-out: permeability
[17] = Clearance in rat hepatocytes assessed per million cells at 1 uM; format: ADME, cell-based, Hepatocyte; settings: read-out: CLH

Row | SMILES | Cmax [1] | fraction unbound [2] | fCmax [3] | AUC [4] | AUC(0-t) at 6 h [5] | Kp uu [6] | fraction unbound [7] | Tmax [8] | Tmax [9] | Cmax [10] | fCmax [11] | Selectivity ratio (Homo sapiens) | Papp B→A [12] | logD [13] | efflux ratio (in vitro) | hepatocyte CLint at 1 µM [14] | solubility at 1 µM [15] | Papp A→B [16] | hepatocyte CLint at 1 µM [17] | logD ([13]; read-out: logD)
1 | CCN1C(=O)C(=O)N([C@H]2CCCN(C[C@H]3COc4ccccc4O3)C2)C1=O | 72 ng/g | 0.096 | 18 nM | 91 ng·h/g | 261 ng·h/mL | 0.4 | 0.078 | 30 min | 30 min | 209 ng/mL | 44 nM |  |  |  |  |  |  |  |  | 
2 | COCc1cccnc1N1CCN(C[C@H]2COc3ccccc3O2)CC1 [ORM-13070] |  |  |  |  |  |  |  |  |  |  |  | 4330 | 45 ×10⁻⁶ cm/s | 3.3 | 1 | 38.7 µL/min/1e6 cells | 176 µM (≈ 62.6 µg/mL) | 44.9 ×10⁻⁶ cm/s | 135 µL/min/1e6 cells | 
3 | Oc1cccc([C@H]2CCCN(C[C@H]3COc4ccccc4O3)C2)c1 | 3 ng/g | < 0.01 | < 0.09 nM | 14 ng·h/g | 9 ng·h/mL |  | < 0.01 | 30 min | 360 min | 2 ng/mL | < 0.06 nM | 1950 | 24.2 ×10⁻⁶ cm/s |  | 1.5 | 294 µL/min/1e6 cells | 18 µM (≈ 5.86 µg/mL) | 16.1 ×10⁻⁶ cm/s | 682 µL/min/1e6 cells | 3.4
